Entries after “also recorded” stand apart in the source; their conditions may differ.
How the values were obtained:
GFP-PfPK9 = GFP-PfPK9 (Plasmodium falciparum, UniProt Q8IEG4); experiment: ATP-competitive binding assay (ATP-sepharose pull-down, FLECS); conditions: GFP-PfPK9; Kd calculated from EC50 of ATP pull-down dose-response; read-out: Kd, app
Description: Primary small-molecule screen. A small-molecule screen was performed similar to a previously reported fluorescence linked enzyme chemoproteomic strategy (FLECS). Briefly, HEK293-GFP-PfPK9 cells were grown in 182-cm^2 tissue culture flasks (Genesee Scientific) and harvested at ˜80% cell confluency. Before assays the culture medium was aspirated, cells were rinsed with ice cold PBS and then they were removed with a cell scraper. Cells were pelleted by centrifugation (2,000 rpm, 4° C., 2 min) and immediately lysed for assays. The pellet was suspended in buffer A (25 mM HEPES, pH 7.4, 150 mM NaCl, 60 mM MgCl2, 1 mM DTT) with 1 μM microcystin, 0.1% Triton X-100 plus a Roche Complete protease inhibitor tablet and then placed on ice for 30 min to facilitate lysis. The supernatant was collected after centrifugation (4,300 rpm, 4° C., 5 min) and used in subsequent screening and titrations experiments. For screening, the supernatant was added to ATP-sepharose beads (1:1) and incubated with agitation at 4° C. for at least 1 hr to allow binding. Following this incubation, the mixture was centrifuged, the ATP resin was washed with 9 column volumes of buffer A with 1 M NaCl and then 9 column volumes of buffer A. The ATP-sepharose medium was reconstituted as a 1:1 slurry with buffer A and then added to 96-well filter plates (50 μL/well) (Corning #3505) using a multichannel pipette (Rainin). The filter plate was on top of black 96-well catch plates (Corning #3915). An ATP dilution series (1-200 mM) was added to each plate as a positive control and DMSO was the negative control. Compounds and controls were all added to 50 μL per well in buffer A. For screening, compounds were tested in singlicate at 500 μM. The final DMSO concentration in every well was 5%. The fluorescence intensity in each well was measured on an EnVision system. Data analyses of screens were carried out in EXCEL (Microsoft, Corp.) and actives were identified as 2×background signal.
All screening positives that were verified with Western blot analysis were purchased from Enamine or Vitas-M laboratory. The purity of compounds 1-5 (shown below) was verified by high-resolution MS (Agilent). Compounds were tested in 8-point dose-response (0-500 μM) experiments in duplicate, essential as described above. The fluorescence intensity in each well was measured using an EnVision system. Dose-response analysis was performed with GraphPad Prism to acquire EC50 values. Determined EC50 values were used to calculate the observed PfPK9 Kd and reported values are the average of 2-3 independent experiments.
Stable cell line generation. The P. falciparum PK9 gene (PlasmoDB accession #PF3D7_1315100) was cloned into the pEGFP-C1 mammalian expression vector (Clontech) in frame with a […] GFP tag. For screening, HEK293 cells were transfected with the resulting PfPK9-pEGFP-C1 vector to generate HEK293-GFP-PfPK9 expressing cells using X-tremeGENE HP transfection reagent (Roche) per the manufacturer instructions. Briefly, the culture medium was replaced at 48 hours post-transfection with medium supplemented with 1 mg/mL G418 sulfate (Life Technologies) to select for stably transfected cells. Following stable cell selection, fluorescence activated cell sorting (FACS) was used to enrich for GFP-PfPK9 expressing cells. Subsequently, FACS sorted HEK293-GFP-PfPK9 cells were cultured with medium supplemented with 0.5 mg/mL G418 sulfate for all following experiments. Protein expression was verified by Western blot analysis probing for anti-GFP and by fluorescence intensity using an EnVision (PerkinElmer) system.
All 14 positive molecules were also tested for their binding affinity to PfPK9 using an optimized ATP-competitive binding assay. EC50 values ranging from low μM to low mM were observed and these EC50 values were used to derive dissociation constants as described previously. […]

[1] = system: TAK1 downstream signaling (IKK, p38, NFκB) in Hela cells; experiment: TNFα dependent signaling in Hela cells; assay type: cell-based
Description: In order to investigate the effects of HS-206 on cellular signaling, MDA-MB-231 and Hela cells were pretreated with 10 μM HS-206 for 2 h and stimulated with TNFα (FIG. 8).

60 cell lines (NCI-60) = experiment: NCI-60 Cell One-Dose Screen; assay type: cell-based; conditions: 10 μM, 24 h
Description: In order to examine the effect of HS-206 on cell viability of different cancers, a screen of 60 cell lines was performed at the NCI, called the NCI-60 Cell One-Dose Screen. […] This screen determined growth inhibition as an effect of HS-206 treatment over a period of 24 h.

TAK1 = TAK1 (Homo sapiens, UniProt O43318); experiment: Kinase profiling (Dundee), TAK1; assay type: biochemical
Description: Kinase selectivity profiling. The selectivity profile of HS-206 to inhibit mammalian kinases was tested against a panel of 140 kinases at a single concentration of 10 μM. Tests were performed using a radiolabeld (^33P-ATP) filter-binding assay at the International Centre for Kinase Profiling at the University of Dundee, UK (http://www.kinase-screen.mrc.ac.uk/).
This panel contains members of all major kinase families, including tyrosine kinases (TK), tyrosine kinase-like (TKL), sterile serine/threonine (STE), and CDK/MAPK/GSK/CLK (CMGC). […] For these kinases, IC50 values were determined (Table 1).

TAK1, sequence (O43318 with tags, fused parts or gaps limits assumed): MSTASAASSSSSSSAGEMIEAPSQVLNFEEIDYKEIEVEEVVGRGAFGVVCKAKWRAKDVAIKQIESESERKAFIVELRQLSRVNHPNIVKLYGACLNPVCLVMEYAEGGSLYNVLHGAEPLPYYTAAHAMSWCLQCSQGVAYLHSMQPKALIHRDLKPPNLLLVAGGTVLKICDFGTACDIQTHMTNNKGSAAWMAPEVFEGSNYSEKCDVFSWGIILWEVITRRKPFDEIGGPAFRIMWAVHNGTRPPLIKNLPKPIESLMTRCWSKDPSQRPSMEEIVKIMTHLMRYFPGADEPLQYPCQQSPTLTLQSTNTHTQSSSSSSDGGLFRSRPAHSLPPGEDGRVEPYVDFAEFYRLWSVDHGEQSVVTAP
GFP-PfPK9, sequence (Q8IEG4 entry or part of it): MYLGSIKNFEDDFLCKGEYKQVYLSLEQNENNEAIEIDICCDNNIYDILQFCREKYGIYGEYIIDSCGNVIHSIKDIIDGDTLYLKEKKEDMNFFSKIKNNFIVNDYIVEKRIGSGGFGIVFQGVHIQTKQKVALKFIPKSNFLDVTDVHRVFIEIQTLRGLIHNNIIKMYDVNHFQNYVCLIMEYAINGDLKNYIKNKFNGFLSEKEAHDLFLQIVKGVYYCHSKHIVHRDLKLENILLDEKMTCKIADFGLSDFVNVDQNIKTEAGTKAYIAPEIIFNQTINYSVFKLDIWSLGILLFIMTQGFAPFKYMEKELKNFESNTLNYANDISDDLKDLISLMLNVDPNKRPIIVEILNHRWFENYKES

Which results are given for `CCCn1c(NC(=O)c2cccc(C(N)=O)c2)nc2ccccc21` [HS-206 (1), (E)-N-(1-Propyl-1,3-dihydro-2H-benzo[d]imidazol-2-ylidene)isophthalamide]?
Kd (GFP-PfPK9): 200 nM; TNFα dependent signaling (activation of IKK and p38) ([1]; 10 μM, 2 h pretreatment, TNFα stimulation): inhibited activation of IKK and p38; also recorded: inhibits TNFα dependent signaling; dose-dependent inhibition of signaling upon TNFα stimulation ([1]; Hela cells): inhibits p38 and NFκB signaling in a dose-dependent manner; also recorded: dose-dependent inhibition of JNK and NFκB signaling; growth inhibition, one-dose screen (60 cell lines (NCI-60); colorectal (KM12), leukemia (HL-60), non-small cell lung cancer (NCI-H522)): most affected; growth inhibition, one-dose screen (60 cell lines (NCI-60); melanoma (M14), renal (786-0), ovarian cancer (Ovcar-3)): little effect; IC50 (TAK1): 9.5 ± 2 nM; inhibition at 10 µM (TAK1; 10 μM): > 90%

From patent US11767298B2, “Substituted benzimidazoles as inhibitors of transforming growth factor-β kinase” (Duke University, priority 2016, dated 2023)
